Test results as given in the supplement of paper PMC10307832.

Experiments:
Assay in all cases: relative viability (nuclei count vs DMSO), 5 days (fraction); higher = more cells survive
XMD8-85 + Bortezomib = compound: CN1CCN(CC1)C2=CC(=C(C=C2)NC3=NC=C4C(=N3)N(C5=CC=CC=C5C(=O)N4C)C)OC [XMD8-85] + CC(C)C[C@H](NC(=O)[C@H](Cc1ccccc1)NC(=O)c1cnccn1)B(O)O [Bortezomib] (partner 0.002 µM)
Summary of the method: (§1)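 Lung cancer cell lines were pin-tool dosed in 1536-well plates on the day after seeding, with either a lone drug or a fixed anchor-drug dose plus five library-drug doses (not always all listed) in √10 steps. Nuclei were counted on 4× images after 5 days. Relative viability is the ratio of treated-well to vehicle-well nuclei counts, with each value a median of duplicate plates.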

XMD8-85 + OSI-027 = compound: CN1CCN(CC1)C2=CC(=C(C=C2)NC3=NC=C4C(=N3)N(C5=CC=CC=C5C(=O)N4C)C)OC [XMD8-85] + COc1cccc2cc(-c3nc([C@H]4CC[C@H](C(=O)O)CC4)n4ncnc(N)c34)[nH]c12 [OSI-027] (partner 0.5 µM)
Summary of the method: as §1

XMD8-85 + Pictilisib = compound: CN1CCN(CC1)C2=CC(=C(C=C2)NC3=NC=C4C(=N3)N(C5=CC=CC=C5C(=O)N4C)C)OC [XMD8-85] + CS(=O)(=O)N1CCN(Cc2cc3nc(-c4cccc5[nH]ncc45)nc(N4CCOCC4)c3s2)CC1 [Pictilisib] (partner 1 µM)
Summary of the method: as §1

4EGI-1 + Decitabine = compound: O=C(O)C(Cc1ccccc1[N+](=O)[O-])=NNc1nc(-c2ccc(Cl)c(Cl)c2)cs1 (mixture of isomers) [4EGI-1] + Nc1ncn([C@H]2C[C@H](O)[C@@H](CO)O2)c(=O)n1 [Decitabine] (partner 2 µM)
Summary of the method: as §1

XMD8-85 + Trametinib = compound: CN1CCN(CC1)C2=CC(=C(C=C2)NC3=NC=C4C(=N3)N(C5=CC=CC=C5C(=O)N4C)C)OC [XMD8-85] + CC(=O)Nc1cccc(-n2c(=O)n(C3CC3)c(=O)c3c(Nc4ccc(I)cc4F)n(C)c(=O)c(C)c32)c1 [Trametinib] (partner 0.02 µM)
Summary of the method: as §1

NCI-H1792
relative viability (XMD8-85 + Bortezomib; first compound 0.08 µM): 0.985
relative viability (XMD8-85 + Bortezomib; first compound 0.253 µM): 0.776
relative viability (XMD8-85 + Bortezomib; first compound 2.53 µM): 0.929
relative viability (XMD8-85 + Bortezomib; first compound 8 µM): 0.838
relative viability (XMD8-85 + OSI-027; first compound 0.253 µM): 0.856
relative viability (XMD8-85 + OSI-027; first compound 2.53 µM): 0.981
relative viability (XMD8-85 + OSI-027; first compound 8 µM): 0.896
relative viability (XMD8-85 + Pictilisib; first compound 0.08 µM): 0.251
relative viability (XMD8-85 + Pictilisib; first compound 0.253 µM): 0.226
relative viability (XMD8-85 + Pictilisib; first compound 2.53 µM): 0.276
relative viability (XMD8-85 + Pictilisib; first compound 8 µM): 0.317
relative viability (4EGI-1 + Decitabine; first compound 0.5 µM): 0.568
relative viability (4EGI-1 + Decitabine; first compound 1.581 µM): 0.715
relative viability (4EGI-1 + Decitabine; first compound 5 µM): 0.6
relative viability (4EGI-1 + Decitabine; first compound 15.81 µM): 0.488
relative viability (4EGI-1 + Decitabine; first compound 50 µM): 0.369
relative viability (XMD8-85 + Trametinib; first compound 0.253 µM): 0.483
relative viability (XMD8-85 + Trametinib; first compound 0.8 µM): 0.308
relative viability (XMD8-85 + Trametinib; first compound 2.53 µM): 0.463
relative viability (XMD8-85 + Trametinib; first compound 8 µM): 0.271
